Here are results for ten compounds from patent publication EP0488169A1, “Beta-Hydroxyethylamines with a 1,1-disubstituted cyclopropyl-group, process for their preparation and use” (HOECHST AKTIENGESELLSCHAFT, priority 1990, dated 1992).

The structures appear in SMILES notation.

Experiment [1] has as its system Candida albicans. Description: Systemic Candida albicans infection in the mouse, survival time, combination therapy with Fluconazol. The class given is in vivo, Maus. The following applies: for Überlebenszeit (bez. auf Fluconazol = 100 %): mice infected i.v. with C. albicans, Fluconazol 9 x p.o. 50 mg/kg/day, combination partner 14 x p.o. 50 mg/kg/day. An excerpt: Als Beispiele für die systemische in vivo-Wirksamkeit der Verbindungen dient die systemische Candida albicans Infektion bei der Maus.
Ziel dieser Methode ist es, den Effekt von Präparaten auf eine systemische Candida albicans Infektion zu ermitteln. Die Infektion führt innerhalb von 2-4 Tagen zum Tod der Tiere.
Beschreibung der Methode: Albino Mäuse (NMRI, Männchen, 15-20 g Körpergewicht) werden intravenös mit Candida albicans Hefezellen infiziert (Stamm 200/175), die frisch auf Malzagar vorkultiviert wurden und in physiologischer Kochsalzlösung suspendiert wurden. Die Infektionsdosis, die in dem angegebenen Zeitrahmen zur Lethalität führt, wurde photometrisch eingestellt und enthielt eine Million Hefezellen pro Maus.
Die zu prüfenden Verbindungen werden entweder alleine oder in Kombination mit einem Standardantimykotikum verabreicht. Im durchgeführten Test wurde ein Kombinationspräparat verwendet, wobei als Standardantimykotikum Fluconazol (Fa. Pfizer) diente. Applikationswege sind je nach Substanzgruppe unterschiedlich, wobei der oralen Applikation der Vorzug gegeben wird. Die Mäuse werden 4 Wochen beobachtet, die Mortalität wird täglich registriert, und die Überlebenszeiten der einzelnen Gruppen werden gemittelt und untereinander verglichen. Gruppengröße beträgt durchschnittlich 10 Tiere.
Der Vergleich der Mittelwerte geschieht mit dem Students T Test.
Dosierungen: Fluconazol jeweils 9 x p.o. 50 mg/kg/Tag Kombinationspartner jeweils 14 x p.o. 50 mg/kg /Tag

The subject of experiment [2] is Phospholipase aus Leberzellen. To be noted: phospholipase from liver cells; Biochem. Pharmacol. 34, 521-24, 1985; cited from earlier work.
Experiment [3] relates to Trichophyton Mentagrophytes. Description: Fungicidal (killing) effect on resting stages (microconidia) of Trichophyton Mentagrophytes, overnight incubation in aqua dest., survival after wash-out. The class given is cell-based. To be noted: read-out: Fungizidie (pilzabtötende Wirkung). An excerpt: Die Fungizide (pilzabtötende Wirkung) der Verbindungendes Typs der Formel I wird bestimmt, indem Ruhestadien (Vermehrungsform ist gleich Mikrokonidien) des Pilzes Trichophyton Mentagrophytes in aqua dest. über Nacht inkubiert werden. Nach Auswaschen des Präparats (vgl. H. Hänel und W. Raether in mycoses 31 (3), 148-154 (1988)) wird auf Überleben der Pilze geprüft.
Einige auf diese Weise bestimmte Werte sind in Tabelle 4 wiedergegeben (Vergleichspräparat ist Rilopirox).

In the case of `OC(Cn1cncn1)(Cn1cncn1)c1ccc(F)cc1F` [Fluconazol, reference compound], in experiment [1], the “Überlebenszeit (bez. auf Fluconazol = 100 %)” value turned out to be 100%.
For the compound `CC(C)NCC(O)COc1cccc2ccccc12` (stereo not shown) [Propranolol], the Hemmwirkung entry in experiment [2] is “wirksamste Substanz”.
As for `Cc1cc(COc2ccc(Oc3ccc(Cl)cc3)cc2)n(O)c(=O)c1` [Rilopirox, reference compound], in experiment [3], the killing at 5 µg/mL was 96.2%, the killing at 10 µg/mL was 100%, the killing at 20 µg/mL worked out at 100% and the killing at 40 µg/mL amounted to 100%. Moreover, in experiment [3], the killing at 80 µg/mL is 100%.
Turning to `CCCCNCC(O)(c1ccc(Cl)cc1)C1(SCc2ccc(Cl)cc2)CC1` (stereo not shown) [Verbindung 1.4], the “Verlängerung der Überlebenszeit” value in experiment [1] (combination therapy with Fluconazol versus Fluconazol monotherapy, compound 14 x 50 mg/kg p.o. once daily) came out at 57%. Also, in experiment [1], the “Überlebenszeit (bez. auf Fluconazol = 100 %)” value was 157%.
In the case of `CC(C)NCC(O)(c1ccc(Cl)cc1)C1(SCc2cccc(C(F)(F)F)c2)CC1` (stereo not shown) [Verbindung 1.17], in experiment [3], the killing at 10 µg/mL stood at 96.9%, the killing at 20 µg/mL was 100%, the killing at 40 µg/mL was found to be 100% and the killing at 80 µg/mL was found to be 100%.
`CCCCNCC(O)(c1ccc(Cl)cc1)C1(SCc2ccc(C(C)(C)C)cc2)CC1` (stereo not shown) [Verbindung 1.29]: in experiment [3], the killing at 10 µg/mL amounted to 99.7%, the killing at 20 µg/mL came out at 100%, the killing at 40 µg/mL came out at 100% and the killing at 80 µg/mL came to 100%.
Turning to `CC(C)OCCCNCC(O)(c1ccc(Cl)cc1)C1(SCc2ccc(C(C)(C)C)cc2)CC1` (stereo not shown) [Verbindung 1.35], in experiment [3], the killing at 5 µg/mL worked out at 99.3%, the killing at 10 µg/mL is 100%, the killing at 20 µg/mL was found to be 100% and the killing at 40 µg/mL was 100%. For the same compound, the killing at 80 µg/mL in experiment [3] was found to be 100%.
Take `CC(C)(C)NCC(O)(c1ccc(Cl)cc1)C1(SCc2ccc(C(C)(C)C)cc2)CC1` (stereo not shown) [Verbindung 1.36]: in experiment [3], the killing at 10 µg/mL is 96.5%, the killing at 20 µg/mL stood at 100%, the killing at 40 µg/mL was determined as 100% and the killing at 80 µg/mL worked out at 100%.
Turning to `CC(C)(C)NCC(O)(c1ccc(Cl)cc1)C1(SCc2ccc(Cl)cc2F)CC1` (stereo not shown) [Verbindung 1.44], in experiment [3], the killing at 10 µg/mL stood at 99.1%, the killing at 20 µg/mL amounted to 100%, the killing at 40 µg/mL amounted to 100% and the killing at 80 µg/mL worked out at 100%.
For `CCCCNCC(O)(c1ccc(C)cc1)C1(SCc2cccc(C(F)(F)F)c2)CC1` (stereo not shown) [Verbindung 1.48], in experiment [3], the killing at 10 µg/mL was determined as 99.4%, the killing at 20 µg/mL worked out at 100%, the killing at 40 µg/mL was 100% and the killing at 80 µg/mL worked out at 100%.
